# Data: publication PMC11368737, “Effects of three flavonoids on the metabolism of lenvatinib” (Frontiers in Pharmacology, 2024)
# Read-outs that look alike come from different tables or passages of the source.
# T1: CYP1A2 (Rattus norvegicus, UniProt P04799)
# T1 sequence (P04799 1-513): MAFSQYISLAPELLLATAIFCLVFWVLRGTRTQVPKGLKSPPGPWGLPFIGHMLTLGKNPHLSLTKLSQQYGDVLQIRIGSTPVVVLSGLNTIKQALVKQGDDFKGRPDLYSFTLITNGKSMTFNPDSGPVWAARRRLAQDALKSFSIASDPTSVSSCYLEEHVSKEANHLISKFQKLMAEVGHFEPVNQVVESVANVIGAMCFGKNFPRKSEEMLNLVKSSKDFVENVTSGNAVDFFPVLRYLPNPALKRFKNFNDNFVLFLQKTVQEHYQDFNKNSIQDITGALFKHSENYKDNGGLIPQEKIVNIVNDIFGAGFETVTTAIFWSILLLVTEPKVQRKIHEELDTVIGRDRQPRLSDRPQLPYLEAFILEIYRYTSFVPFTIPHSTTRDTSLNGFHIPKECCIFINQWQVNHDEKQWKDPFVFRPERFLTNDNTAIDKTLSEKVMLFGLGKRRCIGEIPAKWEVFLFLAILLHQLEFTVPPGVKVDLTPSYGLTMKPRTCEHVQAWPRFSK
# B1: CYP1A2 (Rattus norvegicus) (protein)
# chain: T1 sequence (P04799 1-513)
# Experiments:
# CYP1A2 [1] = system: CYP1A2; set-up: method as in Vavrová et al., 2022; Liu et al., 2023; conditions: CYP1A2 selective inhibitor; ref Vavrová et al., 2022; Liu et al., 2023; cited from earlier work
# [2] = system: lenvatinib metabolism (M1 formation) in HLM; assay: Inhibition of lenvatinib metabolism (M1 formation) by flavonoids in human liver microsomes; type: in vitro ADME; conditions: human; for IC50 at 30 min: 0.3 mg/mL HLM, lenvatinib 16.9 μM, mean ± S.D., read-out: IC50 to inhibit the metabolism of lenvatinib in HLM
# CYP3A4 [3] = system: CYP3A4
# Method: (§2) To determine the enzymatic kinetic parameter (the Michaelis constant, Km) of lenvatinib in RLM and HLM, we established a 200 μL enzyme reaction system, which included 2–100 μM lenvatinib, 0.3 mg/mL RLM or HLM, 0.1 M Tris-HCl, and 1 mM NADPH. […] The mixed probe substrates were added to an incubation mixture containing 0.3 mg/mL RLM, 0.1 M PBS, and 1 mM NADPH. First, the mixture without NADPH was pre-incubated at 37°C for 5 min, and then 10 μL NADPH was added to start the reaction. After incubation for 30 min, the samples were immediately freezed to −80°C to terminate the reaction. About 20 min later, 300 μL acetonitrile and 10 μL regorafenib (200 ng/mL) as IS were added to precipitate the protein. When the samples were fully vortexed for 2 min and completely mixed, the mixture was centrifuged for 10 min at 13,000 rpm. In the end, each supernatant was detected and analyzed by UPLC-MS/MS.
# (§3) To explore the ability of three flavonoids to inhibit lenvatinib metabolism in vitro, we measured the half-maximal inhibitory concentration (IC50) of luteolin, myricetin, and fisetin, respectively. The 200 μL incubation system consisted of Tris-HCl (0.1 M), RLM or HLM (0.3 mg/mL), NADPH (1 mM), lenvatinib (23.5 μM in RLM or 16.9 μM in HLM) and three flavonoids (0, 0.01, 0.1, 1, 10, 25, 50 and 100 μM). To evaluate the effects of three flavonoids on CYP1A2, CYP2B6 and CYP3A4 activity in RLM, the specific CYP isoform probe mixture was incubated with a single inhibitor and the specific CYP isoform probe was used at a concentration equal to or slightly below its corresponding Km value ([Dinger et al., 2014]). […] Finally, the samples were processed as mentioned above.
# CYP3A4 [4] = assay: in vitro; conditions: rat; for IC50 at 30 min: microsomes
# Method: as §2, §3
# CYP1A2 [5] = target: T1, CYP1A2; assay: CYP1A2 activity in RLM, mixed probe method (melatonin); conditions: for inhibition at 30 min, 100 µM: rat
# Method: as §2, §3
# CYP2B6 = CYP2B6 activity in RLM, mixed probe method (bupropion); conditions: for IC50 at 30 min: rat
# [6] = set-up: method as in Xia et al., 2023; conditions: co-administered azole; ref Xia et al., 2023; cited from earlier work
# [7] = Metabolic stability of lenvatinib in RLM with or without flavonoids; type: in vitro ADME; conditions: rat, rat liver microsomes, 1.0 μM lenvatinib, 0.3 mg/mL RLM, with or without flavonoid, n = 3
# Method: Using the UPLC-MS/MS technique, metabolic stability tests were carried out to monitor any discernible drop in lenvatinib concentration in the RLM matrix ([Shang et al., 2021]). 1.0 μM lenvatinib was incubated with 0.3 mg/mL RLM and 1 mM NADPH in 0.1 M Tris-HCl buffer until a final volume of 0.2 mL was reached. NADPH was introduced following a 5 min pre-incubation period, and the reaction was stopped at various intervals of 0, 5, 10, 45, 60, and 90 min. Similarly, three flavonoids were added to the above incubation system to study the effects of the three flavonoids on the metabolic stability of lenvatinib. The post-treatment method was same as the above enzyme reaction. The metabolic stability curve for lenvatinib was constructed from the obtained data.
# The relative content of lenvatinib in the RLM matrix was calculated after stopping the metabolic reaction at different time periods. The relative content was equal to the percentage of the remaining lenvatinib relative to zero time (representing 100%). […] The in vitro half-life (t1/2) was obtained using the equation: t1/2 = 0.693/k; V (mL/mg) = volume of incubation ([Kaci et al., 2023])/protein in the incubation ([Rumgay et al., 2022]); intrinsic clearance (CLint) (mL/min/mg protein) = V × 0.693/t1/2. […] The metabolic stability results of three flavonoids co-incubated with lenvatinib, including t1/2 and clearance were shown in Table 3.
# [8] = Pharmacokinetics of lenvatinib in SD rats with or without luteolin or myricetin; conditions: Sprague-Dawley, rat, in vivo, po, 1.2 mg/kg
# Method: Fifteen SD rats were randomly divided into three groups (n = 5): Group A, lenvatinib (1.2 mg/kg, p. o.) ([Cui et al., 2021]); Group B, lenvatinib (1.2 mg/kg, p. o.) + luteolin (30 mg/kg, p. o.) ([Chen et al., 2010]); Group C, lenvatinib (1.2 mg/kg, p. o.) + myricetin (50 mg/kg, p. o.) ([Lan et al., 2017]). Three drugs were suspended in 0.5% carboxymethylcellulose sodium salt (CMC-Na) solution, respectively, prepared when used. Before the formal experiment, SD rats fasted for 12 h to avoid the effect of food intake on drug absorption, but were free to drink water. At the beginning of the experiment, group A was given equal volumes of 0.5% CMC-Na solution, while group B and C were received luteolin and myricetin, respectively. After 30 min, all three groups were gavaged with a single dose of 1.2 mg/kg lenvatinib. At 1, 1.5, 2, 3, 4, 6, 8, 12, and 24 h after lenvatinib administration, blood samples were collected from the tail vein into a 1.5 mL EP tube treated with heparin, respectively. The 50 μL plasma supernatant was precisely extracted and put into a new 1.5 mL EP tube after centrifugation at 8,000 rpm for 10 min. […] Finally, the liquid supernatant was taken to UPLC-MS/MS to detect the concentration of the analytes.
# [9] = Michaelis-Menten kinetics of lenvatinib in HLM; type: in vitro ADME, human; conditions: human, human liver microsomes; 2–100 μM lenvatinib, 0.3 mg/mL HLM
# Method: (§4) To determine the enzymatic kinetic parameter (the Michaelis constant, Km) of lenvatinib in RLM and HLM, we established a 200 μL enzyme reaction system, which included 2–100 μM lenvatinib, 0.3 mg/mL RLM or HLM, 0.1 M Tris-HCl, and 1 mM NADPH. […] First, the mixture without NADPH was pre-incubated at 37°C for 5 min, and then 10 μL NADPH was added to start the reaction. After incubation for 30 min, the samples were immediately freezed to −80°C to terminate the reaction. About 20 min later, 300 μL acetonitrile and 10 μL regorafenib (200 ng/mL) as IS were added to precipitate the protein. When the samples were fully vortexed for 2 min and completely mixed, the mixture was centrifuged for 10 min at 13,000 rpm. In the end, each supernatant was detected and analyzed by UPLC-MS/MS.
# (§5) The experimental data were expressed as mean ± standard deviation (mean ± S.D.). Through GraphPad Prism 9.5 software, the Michaelis-Menten curves of lenvatinb in RLM and HLM were drawn based on the Michaelis-Menten analysis curve fitting program in nonlinear regression analysis, and the log(inhibitor) vs normalized response mode was applied to acquire the corresponding IC50 curve diagram. […]
# HLM = assay: Michaelis-Menten kinetics of lenvatinib in HLM; type: in vitro ADME, human; conditions: HLM vs RLM
# Method: as §4, §5
# [10] = system: lenvatinib metabolism in rat liver microsomes (RLM); assay: Inhibition of lenvatinib metabolism (M1 formation) by flavonoids in rat liver microsomes; conditions: Lineweaver-Burk plot
# Excerpt: (§1) The experimental data were expressed as mean ± standard deviation (mean ± S.D.). Through GraphPad Prism 9.5 software, the Michaelis-Menten curves of lenvatinb in RLM and HLM were drawn based on the Michaelis-Menten analysis curve fitting program in nonlinear regression analysis, and the log(inhibitor) vs normalized response mode was applied to acquire the corresponding IC50 curve diagram. The Lineweaver-Burk plot was got by the Lineweaver-Burk double reciprocal mode, and its subsidiary plot was drawn on the slope (Km/Vmax vs. inhibitor concentration) and y-intercept (1/Vmax vs. inhibitor concentration) of the drawn line. Besides, the mean plasma concentration-time curve of lenvatinib was plotted based on the pharmacokinetic data. Drug and Statistics (DAS) software (version 3.0 software, Mathematical Pharmacology Professional Committee of China, Shanghai, China) with non-compartment model analyzes was used to obtain the corresponding pharmacokinetic parameters. SPSS (version 24.0; SPSS Inc., Chicago, IL, United States of America) with one-way ANOVA was used to compare the difference between the combination and the single group, respectively. p < 0.05, it was considered statistically significant.
# [11] = system: lenvatinib metabolism in human liver microsomes (HLM); assay: Inhibition of lenvatinib metabolism (M1 formation) by flavonoids in human liver microsomes; type: in vitro ADME; conditions: for Inhibitory type on lenvatinib metabolism in HLM: Lineweaver-Burk plot
# CYP1A2 [12] = system: CYP1A2; set-up: method as in Cao et al., 2017; Shi et al., 2024; conditions: ref Cao et al., 2017; Shi et al., 2024; read-out: IC50 on CYP1A2 in vitro; cited from earlier work
# [13] = system: lenvatinib metabolism (M1 formation) in RLM; assay: Inhibition of lenvatinib metabolism (M1 formation) by flavonoids in rat liver microsomes; conditions: rat
# Excerpt: as §1
# [14] = set-up: method as in Hong et al., 2014; conditions: rats; ref Hong et al., 2014; cited from earlier work
# [15] = system: tofacitinib metabolism in RLM; set-up: method as in Ye et al., 2024; conditions: ref Ye et al., 2024, cited from earlier work
# [16] = system: tofacitinib metabolism in HLM; set-up: method as in Ye et al., 2024; conditions: ref Ye et al., 2024, cited from earlier work
# not read = substrate: COc1ccc2[nH]cc(CCNC(C)=O)c2c1; assay: not read; conditions: other: melatonin, mixed method, RLM; 37.0 °C
# Method: as §2, §3
# [17] = human liver microsomes, probe lenvatinib 16.9 μM
# [18] = rat liver microsomes, probe bupropion (8.0 μM)
molecule,measurement,setting,value
Cc1nc2c([nH]1)c(=O)n(C)c(=O)n2Cc1ccco1 [Furafylline],Inhibitory effect on the formation of O-desmethyl lenvatinib,CYP1A2 [1],37%
O=c1c(O)c(-c2ccc(O)c(O)c2)oc2cc(O)ccc12 [fisetin],IC50 at 30 min,[2]; [17],21.2 ± 0.93 µM
same,Degree of inhibition on CYP3A4,CYP3A4 [3]; RLM,weak inhibition
same,IC50 at 30 min,CYP3A4 [4],74.2 ± 2.16 µM
same,IC50,CYP1A2 [5],5.89 ± 0.13 µM
same,"inhibition at 30 min, 100 µM",CYP1A2 [5]; microsomes,93.6%
same,IC50 at 30 min,CYP2B6; [18],29.4 ± 1.36 µM
C[C@@H](c1nc(-c2ccc(C#N)cc2)cs1)[C@](O)(Cn1cncn1)c1cc(F)ccc1F [isavuconazole],Improvement of plasma exposure to lenvatinib,[6],50.20%
CC(=O)N1CCN(c2ccc(OCC3COC(Cn4ccnc4)(c4ccc(Cl)cc4Cl)O3)cc2)CC1 (stereo not drawn) [ketoconazole],Improvement of plasma exposure to lenvatinib,[6],3.01 times
"COc1cc2nccc(Oc3ccc(NC(=O)NC4CC4)c(Cl)c3)c2cc1C(N)=O [lenvatinib, Lenvatinib]",microsomal CLint at 1 μM,[7],2.3 ± 0.2 µL/min/mg
same,half-life at 1 μM,[7]; read-out: in vitro t1/2 of lenvatinib,17 ± 1.55 h
same,AUC(0-inf),[8],1410 ng·h/mL
same,AUC(0-t),[8],1260 ng·h/mL
same,CL/F,[8],14.3 mL/min/kg
same,Cmax,[8],147 ± 20.4 ng/mL
same,Tmax,[8],5.6 ± 0.89 h
same,t1/2z of lenvatinib,[8],4.14 ± 1.57 h
same,Km at 30 min,[9],16.9 ± 2.42 µM
same,Km in HLM lower than in RLM,HLM,28.1%
O=c1cc(-c2ccc(O)c(O)c2)oc2cc(O)cc(O)c12 [luteolin],Inhibitory type on lenvatinib metabolism in RLM,[10],un-competitive
same,Inhibitory type on lenvatinib metabolism in RLM,[10]; listed as Luteolin,un-competitive inhibition
same,IC50 at 30 min,[2]; [17],6.89 ± 0.43 µM
same,Ki at 30 min,"[2]; human liver microsomes, probe lenvatinib 4.23, 8.45, 16.90, 33.80 μM, Lineweaver-Burk secondary plot, n = 3",14.3 ± 4.85 µM
same,Inhibitory type on lenvatinib metabolism in HLM,[11],mixed
same,Inhibitory type on lenvatinib metabolism in HLM,[11]; listed as Luteolin,mixed type of non-competitive and competitive inhibition
same,α for inhibition of lenvatinib metabolism in HLM,[11]; αKi/Ki,1.34
same,Degree of inhibition on CYP3A4,CYP3A4 [3]; microsomes,weak inhibition
same,IC50,CYP1A2 [12],< 10 µM
same,IC50 at 30 min,CYP3A4 [4],49.4 ± 2.45 µM
same,IC50,CYP1A2 [5],0.81 ± 0.07 µM
same,Degree of inhibition on CYP1A2,"CYP1A2 [5]; RLM, 100 μM",strong inhibition
same,"inhibition at 30 min, 100 µM","CYP1A2 [5]; rat liver microsomes, probe melatonin (30.0 μM)",96.9%
same,Degree of inhibition on CYP2B6,CYP2B6; RLM,moderate inhibition
same,IC50 at 30 min,CYP2B6; [18],18.9 ± 1.33 µM
"Cc1ncc2n1-c1ccc(Cl)cc1C(c1ccccc1F)=NC2 [midazolam, reference compound]",Km at 30 min,CYP3A4 [4],1.9 ± 0.13 µM
O=c1c(O)c(-c2cc(O)c(O)c(O)c2)oc2cc(O)cc(O)c12 [myricetin],IC50 at 30 min,[13],11.2 ± 0.81 µM
same,IC50 at 30 min,[2],12.3 ± 1.21 µM
same,Absolute bioavailability,[14],less than 10%
same,Inhibition type on tofacitinib in RLM,[15],non-competitively
same,IC50,[15]; read-out: IC50 for inhibition of tofacitinib in RLM,9.27 µM
same,Inhibition type on tofacitinib in HLM,[16],non-competitively
same,IC50,[16]; read-out: IC50 for inhibition of tofacitinib in HLM,2.35 µM
same,IC50 at 30 min,CYP3A4 [4],5.11 ± 0.11 µM
same,IC50,CYP1A2 [5],5.61 ± 0.25 µM
same,"inhibition at 30 min, 100 µM",CYP1A2 [5]; microsomes,98.1%
same,IC50 at 30 min,"CYP2B6; microsomes, IC50 for CYP2B6 in RLM, probe 8.0 μM bupropion, mixed probes, 0.3 mg/mL RLM",> 20 µM
same,IC50,"CYP2B6; read-out: IC50 for CYP2B6 in RLM, probe 8.0 μM bupropion, mixed probes, 0.3 mg/mL RLM",25.6 ± 1.73 µM
B1,Km,not read,32.39 ± 0.58 µM
